Tests used:
[1] = test system: mouse ES cells; assay: Neural versus non-neural differentiation and neural complexity scoring of mouse ES cell embryoid bodies; format: cell-based; settings: RA doses 1 μM and 10 nM compared with 100 nM
Description: FIG. 2A is a graph that illustrates the level of neural differentiation when retinoic acid and MEDII are and are not present. The first column (ICb−RA) used a standard media (ICb, see Example 2), where a high percentage of non-neural tissue (scored as beating muscle) was observed. […] The third column used a 50% MEDII conditioned media but without RA supplementation. […] The fourth column used 50% MEDII supplemented with RA.
FIG. 2B is similar to FIG. 2A except the level of neural complexity was scored. A score of 1 to 3 was assigned depending upon the neuronal complexity (number of neurites and networking emanating from the body), with a score of 3 for the most complex.
Single cell suspensions of mouse ES cells were cultured for 4 days in standard culture media (ICb) or in the presence of 50% MEDII. The standard conditioning media (ICb) contains 90 ml DMEM, 10 ml of foetal calf serum, 1 ml glutamine (0.1M stock at 1/100 dilution) and 100 ul of β-Mercaptoethanol (0.1M stock at 1/1000 dilution). The culture process involved media changes on days 2 and 4 involving a ½ splitting of the cell aggregates. […] This media change occurred every day for three days (i.e to EBM^7). By the end of this period the morphological differences in treatment when supplemented with combinations of 50% MEDII and/or RA were apparent. […]

[2] = test system: Human ES cells; assay: TH+ cell immunostaining of adhered human ES cell embryoid bodies; format: cell-based; settings: for formation of TH+ cells (in words): human ES embryoid bodies adhered and differentiated
Experimental: Collagenase/trypsin passaged ES cells were prepared as a single cell suspension and seeded at a density of 150 cells/μl in low attachment TC dishes (Costar). Cell aggregates were split 1:3 at day 2 and possibly at day 3 if required. Cultures were feed daily for 9 days and on day 9 bodies were transferred to poly-L-ornithine/laminin coated 24 well trays in 0.5 ml of medium if adhesive culture was to be conducted. Another 0.5 ml media was added to each well after 24 hours incubation. Adhered cultures or suspension cultures were fed daily for a further 8 days.
Embryoid bodies or neurospheres/aggregates are allowed to settle onto a coated surface to allow differentiation to occur (4 to 8 days). The coating can be on a plastic surface in either a tray or a coated coverslip.
The ability of basic media with supplements (DMEM +N2 or ITSS) to promote neural differentiation of hES cells was compared with medium that included F12: (DMEM:F12 (1:1) +N2 or ITSS)
Trypsinised Human ES cells were seeded at approximately 10 to 20 cells/μl of media into 10 ml of neurosphere media (DMEM:F12, 10 μg/ml heparin (SIGMA), 1/50 B27(GIBCO), 1/100 pen/strep, 1/100 ITSS) in a T75 culture flask. 10 ng/ml FGF2 was optionally added but the culture medium was preferably mitogen-free (no FGF2). Cultures were maintained in the media for 9 days after which the embryoid bodies were optionally transferred to poly-L-ornithine/laminin plates and cultured in the same media for a further 6 days. The embryoid bodies so formed (EB^15) whether from adherent or suspension culture, were then triturated to near single cell form and used for either transplantation or for the formation of neurospheres/cell reaggregates.
Example 5 was repeated utilising human ES cells and a minimal media consisting of DMEM and 100 μM L-proline as outlined in the schematic of FIG. 12. Results were similar to those described in Example 5.

Row | Compound | uniformity of RA effect on embryoid bodies [1] | formation of TH+ cells (in words) [2] | proportion of TH+ cells ([2]; human ES embryoid bodies, 9 days suspension then adherent culture on laminin, with N2 or ITSS, L-proline 100 μM in DMEM) [%]
1 | CC1=C(/C=C/C(C)=C/C=C/C(C)=C/C(=O)O)C(C)(C)CCC1 [RA, (all-E)-3,7-dimethyl-9-(2,6,6-trimethyl-1-cyclohexen-1-yl)-2,4,6,8-nonatetraenoic acid] | not as uniform as seen with 100 nM RA | – | –
2 | FGF2: fibroblast growth factor | – | little impact on the generation of TH+ cells | –
3 | O=C(O)[C@@H]1CCCN1 [L-proline] | – | high numbers of TH+cells | ~50

From US20050244964A1, “Production of neural progenitor cells” (priority 2002, published 2005)
